According to ChEMBL document CHEMBL3045651, “Nymania-3: a bioactive triterpenoid from Dysoxylum malabaricum” (1999):

Key:
Type in all cases: functional
Olepa ricini [1] = test: Antifeedant activity against Olepa ricini fed on compound pre-treated castor leaves assessed as insect mortality at 0.5 ug/cm2 by dual choice leaf disk method (reference value: 4%); conditions: foliar
Olepa ricini [2] = test: Antifeedant activity against Olepa ricini fed on compound pre-treated castor leaves assessed as pupal weight at 0.5 ug/cm2 by dual choice leaf disk method (reference value: 476 +/- 10.6 mg)
Olepa ricini [3] = test: Antifeedant activity against Olepa ricini fed on compound pre-treated castor leaves assessed as duration of development of pupa at 0.5 ug/cm2 by dual choice leaf disk method (reference value: 7.5 +/- 0.3 days)
Olepa ricini [4] = test: Antifeedant activity against Olepa ricini fed on compound pre-treated castor leaves assessed as duration of development of fifth-instar larvae at 0.5 ug/cm2 by dual choice leaf disk method (reference value: 4.5 +/- 0.4 days)
Olepa ricini [5] = test: Antifeedant activity against Olepa ricini fed on compound pre-treated castor leaves assessed as duration of development of fourth-instar larvae at 0.5 ug/cm2 by dual choice leaf disk method (reference value: 7.5 +/- 0.2 days)
Olepa ricini [6] = test: Antifeedant activity against Olepa ricini fed on compound pre-treated castor leaves assessed as duration of development of third-instar larvae at 0.5 ug/cm2 by dual choice leaf disk method (reference value: 4.5 +/- 0.7 days)
Olepa ricini [7] = test: Antifeedant activity against Olepa ricini fed on compound pre-treated castor leaves assessed as percent feeding index at 50 ug/cm2 by dual choice leaf disk method
Olepa ricini [8] = test: Antifeedant activity against Olepa ricini fed on compound pre-treated castor leaves assessed as percent feeding index at 10 ug/cm2 by dual choice leaf disk method
Olepa ricini [9] = test: Antifeedant activity against Olepa ricini fed on compound pre-treated castor leaves assessed as percent feeding index at 5 ug/cm2 by dual choice leaf disk method
Olepa ricini [10] = test: Antifeedant activity against Olepa ricini fed on compound pre-treated castor leaves assessed as percent feeding index at 1 ug/cm2 by dual choice leaf disk method
Olepa ricini [11] = test: Antifeedant activity against Olepa ricini fed on compound pre-treated castor leaves assessed as insect mortality at 1 ug/cm2 by dual choice leaf disk method (reference value: 4%); conditions: foliar
Olepa ricini [12] = test: Antifeedant activity against Olepa ricini fed on compound pre-treated castor leaves assessed as pupal weight at 1 ug/cm2 by dual choice leaf disk method (reference value: 476 +/- 10.6 mg)
Olepa ricini [13] = test: Antifeedant activity against Olepa ricini fed on compound pre-treated castor leaves assessed as duration of development of pupa at 1 ug/cm2 by dual choice leaf disk method (reference value: 7.5 +/- 0.3 days)
Olepa ricini [14] = test: Antifeedant activity against Olepa ricini fed on compound pre-treated castor leaves assessed as duration of development of fifth-instar larvae at 1 ug/cm2 by dual choice leaf disk method (reference value: 4.5 +/- 0.4 days)
Olepa ricini [15] = test: Antifeedant activity against Olepa ricini fed on compound pre-treated castor leaves assessed as duration of development of fourth-instar larvae at 1 ug/cm2 by dual choice leaf disk method (reference value: 7.5 +/- 0.2 days)
Olepa ricini [16] = test: Antifeedant activity against Olepa ricini fed on compound pre-treated castor leaves assessed as duration of development of third-instar larvae at 1 ug/cm2 by dual choice leaf disk method (reference value: 4.5 +/- 0.7 days)

What does the source list for `C/C=C(\C)C(=O)O[C@H]1C[C@@H](OC(C)=O)[C@@]2(C(=O)OC)CO[C@H]3[C@@H](O)[C@@](C)([C@]45O[C@@]4(C)[C@H]4C[C@@H]5O[C@@H]5OC=C[C@@]54O)[C@H]4[C@]1(CO[C@]4(O)C(=O)OC)[C@@H]32` [AZADIRACTIN]?
mortality at 0.5 µg/cm2 (Olepa ricini [1]): 16%; Activity (Olepa ricini [2]): 344 mg; Time (Olepa ricini [3]): 7.4 days; Time (Olepa ricini [4]): 5.7 days; Time (Olepa ricini [5]): 8.6 days; Time (Olepa ricini [6]): 7 days; FI (Olepa ricini [7]): 10%; FI (Olepa ricini [8]): 12.5%; FI (Olepa ricini [9]): 15.6%; FI (Olepa ricini [10]): 20.8%

`C=C1[C@@H]([C@@]2(C)C=CC(=O)OC(C)(C)[C@@H]2CC(=O)OC)[C@@H](OC(C)=O)[C@H](OC(C)=O)[C@@]2(C)[C@@H](c3ccoc3)C[C@H]3O[C@]132` [NYMANIA] was tested. Which mortality at 1 µg/cm2 (Olepa ricini [11]) did it give?
Its mortality at 1 µg/cm2 is 16%.

What about the Activity (Olepa ricini [12]) of the same molecule?
The Activity was 428 mg.

And the Time (Olepa ricini [13])?
The Time was 7.4 days.

What about the Time (Olepa ricini [14]) of the same molecule?
Its Time is 5.3 days.

What about the Time (Olepa ricini [15]) of the same molecule?
The Time was 8.8 days.

And the Time (Olepa ricini [16])?
The Time was 6.8 days.

And the FI (Olepa ricini [7])?
The FI was 19.5%.

And the FI (Olepa ricini [8])?
Its FI is 23.4%.

What about the FI (Olepa ricini [9]) of the same molecule?
Its FI is 30%.

And the FI (Olepa ricini [10])?
The FI was 33.5%.
